According to patent publication US20260103479A1, “PRODRUGS OF OPICAPONE” (BIAL- PORTELA & CA, S.A., priority 2022, published 2026):
In brackets after ≈: the same amount, converted by molar mass. Counter-ions that a name gives are not always drawn.

Legend:
physchem = settings: water, thermodynamic from solid, Solubility in pure water
[1] = Aqueous solubility in distilled (pure) water at room temperature; settings: thermodynamic from solid

solubility [1] [mg/mL]	SMILES	solubility (physchem) [mg/mL]
–	Cc1c(Cl)c(C)[n+]([O-])c(Cl)c1-c1noc(-c2cc(OP(=O)(O)O)c(O)c([N+](=O)[O-])c2)n1 [Compound 3, 2,5-dichloro-3-(5-(4-hydroxy-3-nitro-5-(phosphonooxy)phenyl)-1,2,4-oxadiazol-3-yl)-4,6-dimethylpyridine 1-oxide, triammonia salt]	> 0.5
0.023 to 0.036 (≈ 55.7 to 87.1 µM)	Cc1c(Cl)c(C)[n+]([O-])c(Cl)c1-c1noc(-c2cc(O)c(O)c([N+](=O)[O-])c2)n1 [Opicapone, 2,5-dichloro-3-(5-(3,4-dihydroxy-5-nitrophenyl)-1,2,4-oxadiazol-3-yl)-4,6-dimethylpyridine 1-oxide]	–
